Results taken from article PMC10510102, “Efficient Ligand Discovery Using Sulfur(VI) Fluoride Reactive Fragments” (ACS Chemical Biology, 2023).

Key:
BCL6 = target: T1, BCL6 (Homo sapiens, UniProt P41182, C67R/C84N/C8Q); assay: Kinetic analyses of covalent modification, intact protein LC-MS; assay type: binding; details: 0.5 μM BCL6; 5-100 μM SF; 4 °C
T1 construct: hBCL6-Flag-6H-Avi 3Cmut (5–129) produced as part of the GSK/GenScript collaboration; Flag (C); 6H (His6) (C); Avi (C)
Text: (§1) The fluorescence intensity data from the individual replicates of each sample type were normalized and identically truncated within GraphPad Prism 5.0.4.11 These values were subsequently fitted to equation (4) corresponding to a Boltzmann sigmoid in order to obtain the melting temperature (“V50”; T m) of the protein:
(§2) Y=BOTTOM+((TOP+BOTTOM)/(1+exp((V50–X)/SLOPE))) (4)
(§3) The three obtained T m values were averaged to give a final T m value in each case. The normalized fluorescence data for the three replicates of each sample were averaged to yield a single dataset for each case, which were then plotted in GraphPad Prism 5.0.4 to give the plots shown in the manuscript.11
(§4) Table S9. Thermal melting temperatures of unmodified and covalently modified BCL6 BTB/POZ domain as determined by differential scanning fluorimetry measurements.
(§5) The arithmetic mean and standard deviation from three replicates are shown.
(§6) Hit Chemotype Protein Species Tm / °C ΔT m / °C […]
meta-Substituted Benzamide BCL6 + 2g 70.4 ± 0.3 +11.7
Azetidinyl Fragments BCL6 + 2h 55.5 ± 0.1 −3.2 […]
8.3. Protocol for kinetic analyzes (BCL6) […]
BCL6 BTB domain (BCL65–129(C8Q,C67R,C84N)-FLAG, 10 µM) was incubated with each compound (500 µM, eq. 0.25% v/v DMSO) in 20 mM Tris pH 8.5 and 150 mM NaCl (2 mL) at 20 °C for 6 h. […] The protein-fragment complex was concentrated to >6 mg/mL, as determined by spectrophotometry. […]

BCL6 BTB/POZ domain = BCL6 BTB/POZ domain (Homo sapiens, UniProt P41182, C67R/C84N/C8Q); assay: Cocrystal structure with BCL6 BTB/POZ dimer; parameters: hBCL6-Flag 3Cmut (5-129) produced in house; FLAG (C); made in house; details: via a sulfonate ester
Text: Crystal structures of SFs 2f and 2s within BCL6 were generated to further investigate the binding mode of the fragments; this used a previously published protocol.[42] […] The twisted conformation of 2s could also represent a premodified state of the protein–SF complex, which may have become disrupted for 2f upon covalent modification with Tyr57 to afford the extended conformation observed.
as §1, §2, §3, §4, §5, §6

CC(=O)Nc1cccc(CNC(=O)Cc2ccc(S(=O)(=O)F)cc2)c1 [2g] was tested, and the Ki (BCL6) was 80 µM.

In the case of CN(C)C(=O)Nc1cccc(CNC(=O)Cc2ccc(S(=O)(=O)F)cc2)c1 [2f], the Ki (BCL6) is reported as 56 µM and the “residue covalently conjugated in cocrystal structure” value (BCL6 BTB/POZ domain) is reported as “Tyr57”.
